From patent US8703451B2, “Method for the production of free carboxylic acids” (priority 2008, dated 2014)

Assays:
[1] = system: Ralstonia eutropha PHB-4 (reclassified as Cupriavidus necator, DSMZ 541); type: cell-based; settings: 0.5%, 1%, 5% and 10% (w/v) TOA; over a period of 20 hours (fermentation time 46-65 hours)
Procedure: Biocompatibility of TOA (trioctylamine) with Ralstonia eutropha Cultures of Ralstonia eutropha PHB-4 (reclassified as Cupriavidus necator, DSMZ 541) transformed with the plasmid: pBBR1MCS-2::icmA-icmB with SEQ ID No. 1 were fermented on a 400 ml scale in a standard medium for 46 hours to an OD (optical density at 600 nm) of ca. 30, which corresponds to a CFU (colony formed units) of 1×10^11 per ml, under standard conditions (30° C.; pH 6.8; rpm 250-750; pO2 20%).
After a fermentation time of 48 hours, 0.5%, 1%, 5% and 10% (w/v) trioctylamine (TOA) were added under sterile conditions. After a further 6 and 20 hours the CFU were determined.
To ascertain the CFU, dilution series of the broths were prepared. The dilutions were plated out onto agar plates and incubated for 24 hours at 30° C.
The values are summarized in the table below, the CFU values are standardized to 1 ml of fermentation broth.

[2] = system: Ralstonia eutropha PHB-4 (reclassified as Cupriavidus necator, DSMZ 541); type: cell-based; settings: 1, 5 and 10% (w/v) TOA; shake flasks, 24 h, 30° C., 140 rpm
Procedure: 2-Hydroxyisobutyric-acid-producing Ralstonia eutropha PHB-4 (reclassified as Cupriavidus necator, DSMZ 541), which have been transformed with the plasmid pBBR1MCS-2::icmA-icmB, SEQ ID No. 1, were grown as two 50 ml cultures in a shaking incubator under standard conditions (30° C., 140 rpm, 20 h) in LB medium.
From this, for the biomass production, 5×10 ml were inoculated over into 40 ml of modified mineral salt medium (in accordance with Schlegel et al., 1961) and incubated for 10 h under standard conditions
The biomass cultures were centrifuged off and resuspended in 10 ml of modified mineral salt medium.
Using the resuspensions, 5 flasks of a Ramos shaking incubator (Respiration Activity Monitoring System) were inoculated. The flasks were filled with modified mineral salt medium (addition of 1 g/l of yeast extract and 15 g/l of fructose) with vitamin B12 (60 mg/l). 3 flasks additionally comprised 1, 5 and 10% (w/v) of trioctylamine (TOA).
The flasks were incubated for 24 h under standard conditions (30° C., 140 rpm).
After 0, 15 and 24 hours, samples were taken and CFU (OD), pH, and 2HIB concentration in the broth were determined.
For the CFU determination, dilution series of the broths were prepared. The dilutions were plated out onto LB agar plates with 300 mg/l of Kanamycin and incubated for 24 h at 30° C. A 4-fold determination of the dilutions 10^−8 and 10^−9 was carried out.

Q: Which results are given for `CCCCCCCCN(CCCCCCCC)CCCCCCCC` [TOA, trioctylamine]?
A: Change of CFU in the presence of TOA [1]: increased further; Influence on cell growth (CFU, FIG. 1) [2]: not influenced
